# Measured values from patent US8569344B2, “N-piperidinyl acetamide derivatives as calcium channel blockers” (Zalicus Pharmaceuticals Ltd., priority 2008, dated 2013).
# Columns and labels:
# [1] = target: T1, human α1G T-type channels (Homo sapiens, UniProt O43497); test: T-type calcium channel block, whole cell patch clamp in HEK cells (α1G); assay type: cell-based; settings: HEK cells, patch clamp, mainly non-inactivated protocol; values above 10 μM shown as 10 μM, below 0.30 μM shown as 0.30 μM; read-out: T-type Calcium Channel Block α1G IC50
# T1 construct: expressed in transfected cells; host or cells: HEK 293
# [2] = target: T2, human α1H T-type channels (Homo sapiens, UniProt O95180); test: T-type calcium channel block, whole cell patch clamp in HEK cells (α1H); assay type: cell-based; settings: HEK cells, patch clamp, mainly non-inactivated protocol; values above 10 μM shown as 10 μM; read-out: T-type Calcium Channel Block α1H IC50
# T2 construct: expressed in transfected cells; host or cells: HEK 293
# T2 sequence (O95180 whole entry): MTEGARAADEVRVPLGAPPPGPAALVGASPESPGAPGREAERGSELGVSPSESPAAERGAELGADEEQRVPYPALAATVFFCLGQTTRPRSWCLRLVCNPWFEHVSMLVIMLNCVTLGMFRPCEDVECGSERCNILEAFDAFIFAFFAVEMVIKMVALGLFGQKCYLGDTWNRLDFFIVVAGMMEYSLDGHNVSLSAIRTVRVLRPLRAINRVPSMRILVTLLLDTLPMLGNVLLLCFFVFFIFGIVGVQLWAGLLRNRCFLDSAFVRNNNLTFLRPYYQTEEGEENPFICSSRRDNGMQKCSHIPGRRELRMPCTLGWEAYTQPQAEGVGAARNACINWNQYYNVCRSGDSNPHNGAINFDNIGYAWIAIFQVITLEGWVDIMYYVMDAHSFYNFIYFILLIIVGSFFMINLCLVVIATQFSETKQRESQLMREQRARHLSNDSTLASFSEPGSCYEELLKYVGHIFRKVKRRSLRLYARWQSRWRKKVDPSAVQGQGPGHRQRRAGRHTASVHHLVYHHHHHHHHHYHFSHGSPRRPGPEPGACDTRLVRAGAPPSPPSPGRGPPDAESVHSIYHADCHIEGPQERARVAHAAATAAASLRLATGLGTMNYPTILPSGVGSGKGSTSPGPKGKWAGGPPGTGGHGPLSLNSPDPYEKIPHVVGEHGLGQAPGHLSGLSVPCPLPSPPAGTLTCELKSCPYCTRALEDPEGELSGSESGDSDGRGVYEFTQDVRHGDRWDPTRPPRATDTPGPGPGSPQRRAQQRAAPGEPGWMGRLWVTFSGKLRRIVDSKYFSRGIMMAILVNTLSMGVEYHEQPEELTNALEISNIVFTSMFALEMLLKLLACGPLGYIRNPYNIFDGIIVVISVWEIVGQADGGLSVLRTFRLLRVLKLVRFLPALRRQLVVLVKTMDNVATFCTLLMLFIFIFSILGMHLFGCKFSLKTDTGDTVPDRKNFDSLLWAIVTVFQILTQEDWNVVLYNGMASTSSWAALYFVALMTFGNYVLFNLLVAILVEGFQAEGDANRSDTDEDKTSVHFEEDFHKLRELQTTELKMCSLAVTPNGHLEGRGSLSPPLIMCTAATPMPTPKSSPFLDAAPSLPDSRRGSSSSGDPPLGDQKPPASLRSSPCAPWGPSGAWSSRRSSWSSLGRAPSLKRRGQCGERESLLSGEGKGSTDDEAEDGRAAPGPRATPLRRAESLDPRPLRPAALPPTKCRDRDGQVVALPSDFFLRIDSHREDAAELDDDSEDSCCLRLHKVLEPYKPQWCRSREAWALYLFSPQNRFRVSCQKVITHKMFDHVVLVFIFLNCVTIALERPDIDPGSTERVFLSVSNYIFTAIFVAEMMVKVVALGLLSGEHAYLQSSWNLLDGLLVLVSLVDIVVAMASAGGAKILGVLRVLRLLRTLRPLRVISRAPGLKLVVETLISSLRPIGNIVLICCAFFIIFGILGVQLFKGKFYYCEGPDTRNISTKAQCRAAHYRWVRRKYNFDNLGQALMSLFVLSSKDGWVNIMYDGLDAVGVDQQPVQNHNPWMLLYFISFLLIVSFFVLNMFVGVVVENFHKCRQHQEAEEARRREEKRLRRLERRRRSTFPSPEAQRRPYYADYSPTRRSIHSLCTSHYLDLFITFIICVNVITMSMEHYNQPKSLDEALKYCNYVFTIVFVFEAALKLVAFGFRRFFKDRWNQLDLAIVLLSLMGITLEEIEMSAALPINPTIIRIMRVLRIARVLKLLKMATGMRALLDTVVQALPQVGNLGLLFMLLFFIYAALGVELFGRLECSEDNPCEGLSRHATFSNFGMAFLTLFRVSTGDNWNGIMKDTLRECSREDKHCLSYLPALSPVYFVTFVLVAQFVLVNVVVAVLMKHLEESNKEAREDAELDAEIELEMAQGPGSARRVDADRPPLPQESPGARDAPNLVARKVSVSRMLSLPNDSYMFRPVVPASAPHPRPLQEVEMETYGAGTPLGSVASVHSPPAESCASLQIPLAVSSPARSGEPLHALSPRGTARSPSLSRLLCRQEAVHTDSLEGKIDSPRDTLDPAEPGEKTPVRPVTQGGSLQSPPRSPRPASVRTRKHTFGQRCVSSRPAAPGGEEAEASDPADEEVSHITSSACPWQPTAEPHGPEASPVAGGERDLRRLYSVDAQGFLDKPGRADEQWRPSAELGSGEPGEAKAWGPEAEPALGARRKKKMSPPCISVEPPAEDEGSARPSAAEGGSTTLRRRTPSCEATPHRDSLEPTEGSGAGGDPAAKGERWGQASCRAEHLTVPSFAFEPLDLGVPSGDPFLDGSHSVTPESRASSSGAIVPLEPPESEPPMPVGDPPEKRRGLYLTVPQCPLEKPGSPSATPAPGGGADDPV
# T1 sequence (O43497 whole entry): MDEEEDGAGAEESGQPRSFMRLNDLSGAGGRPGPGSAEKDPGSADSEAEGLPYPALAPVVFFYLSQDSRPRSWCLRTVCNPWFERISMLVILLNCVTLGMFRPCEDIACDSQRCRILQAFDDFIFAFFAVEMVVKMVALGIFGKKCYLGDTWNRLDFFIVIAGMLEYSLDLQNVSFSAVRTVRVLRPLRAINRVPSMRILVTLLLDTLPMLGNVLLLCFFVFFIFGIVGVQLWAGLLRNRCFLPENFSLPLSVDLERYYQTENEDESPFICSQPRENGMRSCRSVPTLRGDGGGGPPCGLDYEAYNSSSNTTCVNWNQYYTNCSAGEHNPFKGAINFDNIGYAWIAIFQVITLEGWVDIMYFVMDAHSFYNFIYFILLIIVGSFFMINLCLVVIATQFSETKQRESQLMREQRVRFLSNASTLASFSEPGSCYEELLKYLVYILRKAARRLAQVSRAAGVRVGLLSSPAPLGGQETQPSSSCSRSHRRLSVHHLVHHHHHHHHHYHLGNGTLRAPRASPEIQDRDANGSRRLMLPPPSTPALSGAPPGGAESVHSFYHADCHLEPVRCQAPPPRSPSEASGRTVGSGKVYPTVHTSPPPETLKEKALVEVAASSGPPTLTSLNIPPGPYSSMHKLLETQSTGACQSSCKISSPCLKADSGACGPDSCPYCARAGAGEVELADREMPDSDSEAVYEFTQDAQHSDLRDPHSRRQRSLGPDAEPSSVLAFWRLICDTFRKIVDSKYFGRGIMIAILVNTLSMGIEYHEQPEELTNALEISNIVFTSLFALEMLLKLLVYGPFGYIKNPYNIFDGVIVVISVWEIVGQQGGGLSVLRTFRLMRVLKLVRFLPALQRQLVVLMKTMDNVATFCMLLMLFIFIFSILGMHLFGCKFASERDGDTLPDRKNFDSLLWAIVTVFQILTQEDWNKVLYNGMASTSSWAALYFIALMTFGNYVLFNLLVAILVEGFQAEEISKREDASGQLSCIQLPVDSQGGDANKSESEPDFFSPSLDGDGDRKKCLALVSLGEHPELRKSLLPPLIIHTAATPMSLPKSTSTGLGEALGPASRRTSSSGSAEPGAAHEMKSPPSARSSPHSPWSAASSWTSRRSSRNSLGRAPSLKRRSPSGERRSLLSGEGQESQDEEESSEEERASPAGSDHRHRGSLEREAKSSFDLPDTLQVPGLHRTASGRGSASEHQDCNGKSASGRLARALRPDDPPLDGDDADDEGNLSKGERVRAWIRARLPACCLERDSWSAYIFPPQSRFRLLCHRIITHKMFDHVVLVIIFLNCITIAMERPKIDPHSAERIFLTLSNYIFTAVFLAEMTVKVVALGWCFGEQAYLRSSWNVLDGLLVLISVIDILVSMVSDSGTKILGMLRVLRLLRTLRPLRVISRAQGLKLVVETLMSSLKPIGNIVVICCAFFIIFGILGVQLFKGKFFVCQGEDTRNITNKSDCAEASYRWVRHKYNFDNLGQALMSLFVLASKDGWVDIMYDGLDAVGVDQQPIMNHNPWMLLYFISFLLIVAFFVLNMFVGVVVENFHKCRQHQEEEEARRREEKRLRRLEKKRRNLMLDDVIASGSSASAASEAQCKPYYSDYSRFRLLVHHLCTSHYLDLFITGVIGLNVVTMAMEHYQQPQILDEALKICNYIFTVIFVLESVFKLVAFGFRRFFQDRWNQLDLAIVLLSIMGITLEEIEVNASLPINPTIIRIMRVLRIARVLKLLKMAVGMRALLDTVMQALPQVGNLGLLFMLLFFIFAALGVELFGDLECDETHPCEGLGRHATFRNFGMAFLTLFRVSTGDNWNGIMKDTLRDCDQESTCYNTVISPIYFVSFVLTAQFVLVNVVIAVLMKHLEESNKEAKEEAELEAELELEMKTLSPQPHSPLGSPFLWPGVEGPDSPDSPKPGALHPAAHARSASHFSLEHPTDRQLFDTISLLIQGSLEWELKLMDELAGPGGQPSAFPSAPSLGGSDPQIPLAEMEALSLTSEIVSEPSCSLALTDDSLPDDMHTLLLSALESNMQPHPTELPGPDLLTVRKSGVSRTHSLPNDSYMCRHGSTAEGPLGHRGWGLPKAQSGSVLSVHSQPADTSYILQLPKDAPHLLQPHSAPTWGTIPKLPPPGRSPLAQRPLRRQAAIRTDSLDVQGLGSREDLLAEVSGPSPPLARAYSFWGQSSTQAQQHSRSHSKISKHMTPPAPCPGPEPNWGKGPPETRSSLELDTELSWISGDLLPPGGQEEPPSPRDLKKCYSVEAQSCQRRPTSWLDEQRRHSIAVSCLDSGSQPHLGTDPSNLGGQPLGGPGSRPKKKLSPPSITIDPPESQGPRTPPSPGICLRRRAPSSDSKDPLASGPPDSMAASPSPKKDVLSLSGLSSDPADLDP
SMILES,IC50 [1] [nM],IC50 [2] [nM]
"O=C(NCC1CCN(CC(=O)N2CCC(F)CC2)CC1)c1cc(F)cc(C(F)(F)F)c1 [Compound 356, 3-fluoro-N-((1-(2-(4-fluoropiperidin-1-yl)-2-oxoethyl)piperidin-4-yl)methyl)-5-(trifluoromethyl)benzamide]",550,830
"CC(C)(C)NC(=O)CN1CCC(CNC(=O)/C=C/c2cc(F)cc(F)c2)CC1 [Compound 369, (E)-N-((1-(2-(tert-butylamino)-2-oxoethyl)piperidin-4-yl)methyl)-3-(3,5-difluorophenyl)acrylamide]",6910,7010
"CC(C)(C)NC(=O)CN1CCC(CNC(=O)c2cc(C(F)(F)F)ccn2)CC1 [Compound 372, N-((1-(2-(tert-butylamino)-2-oxoethyl)piperidin-4-yl)methyl)-4-(trifluoromethyl)picolinamide]",> 10000,> 10000
"CC(C)(C)NC(=O)CN1CCC(CNC(=O)c2ccnc(N3CCCC3)c2)CC1 [Compound 373, N-((1-(2-(tert-butylamino)-2-oxoethyl)piperidin-4-yl)methyl)-2-(pyrrolidin-1-yl)isonicotinamide]",> 10000,> 10000
"CCOc1cc(OCC)cc(C(=O)NCC2CCN(CC(=O)NC(C)(C)C)CC2)c1 [Compound 377, N-((1-(2-(tert-butylamino)-2-oxoethyl)piperidin-4-yl)methyl)-3,5-diethoxybenzamide]",< 300,450
"CC(C)(C)NC(=O)CN1CCC(CNC(=O)/C=C/c2cc(Cl)cc(Cl)c2)CC1 [Compound 378, (E)-N-((1-(2-(tert-butylamino)-2-oxoethyl)piperidin-4-yl)methyl)-3-(3,5-dichlorophenyl)acrylamide]",1600,1440
"COc1cc(C(=O)NCC2CCN(CC(=O)NC(C)(C)C)CC2)cc(C(F)(F)F)c1 [Compound 379, N-((1-(2-(tert-buylamino)-2-oxoethyl)piperidin-4-yl)methyl)-3-methoxy-5-(trifluoromethyl)benzamide]",< 300,130
"CC(C)(C)NC(=O)CN1CCC(CNC(=O)c2cc(Cl)cc(Br)c2)CC1 [Compound 381, 3-bromo-N-((1-(2-(tert-butylamino)-2-oxoethyl)piperidin-4-yl)methyl)-5-chlorobenzamide]",< 300,80
"CC(C)(C)NC(=O)CN1CCC(CNC(=O)c2cc(Br)cc(Br)c2)CC1 [Compound 384, 3,5-dibromo-N-((1-(2-(tert-buylamino)-2-oxoethyl)piperidin-4-yl)methyl)benzamide]",< 300,90
"CC(C)S(=O)(=O)NCCN1CCC(CNC(=O)c2cc(F)cc(Cl)c2)CC1 [Compound 385, 3-chloro-5-fluoro-N-((1-(2-(1-methylethylsulfonamido)ethyl)piperidin-4-yl)methyl)benzamide]",580,800
"CC(C)S(=O)(=O)NCCN1CCC(CNC(=O)c2cccc(Br)c2)CC1 [Compound 386, 3-bromo-N-((1-(2-(1-methylethylsulfonamido)ethyl)piperidin-4-yl)methyl)benzamide]",870,490
"O=C(NCC1CCN(CCNS(=O)(=O)C2CC2)CC1)c1ccc(C(F)(F)F)c(F)c1 [Compound 387, N-((1-(2-(cyclopropanesulfonamido)ethyl)piperidin-4-yl)methyl)-3-fluoro-4-(trifluoromethyl)benzamide]",990,720
"O=C(NCC1CCN(CCNS(=O)(=O)C(F)(F)F)CC1)c1ccc(OC(F)(F)F)cc1 [Compound 389, 4-(trifluoromethoxy)-N-((1-(2-(trifluoromethylsulfonamido)ethyl)piperidin-4-yl)methyl)benzamide]",> 10000,> 10000

# More lines, now with the values ahead:
IC50 [1] [nM],IC50 [2] [nM],SMILES
< 300,160,"O=C(NCC1CCN(CC(=O)N2CC[C@H](C(F)(F)F)C2)CC1)c1cc(F)cc(C(F)(F)F)c1 [Compound 355, (S)-3-fluoro-N-((1-(2-oxo-2-(3-(trifluoromethyl)pyrrolidin-1-yl)ethyl)piperidin-4-yl)methyl)-5-(trifluoromethyl)benzamide]"
2150,1270,"CS(=O)(=O)NC1(CN2CCC(CNC(=O)c3cc(C(F)(F)F)cc(C(F)(F)F)c3)CC2)CC1 [Compound 357, N-((1-((1-(methylsulfonamido)cyclopropyl)methyl)piperidin-4-yl)methyl)-3,5-bis(trifluoromethyl)benzamide]"
520,530,"CCS(=O)(=O)NC1(CN2CCC(CNC(=O)c3cc(C(F)(F)F)cc(C(F)(F)F)c3)CC2)CC1 [Compound 358, N-((1-((1-(ethylsulfonamido)cyclopropyl)methyl)piperidin-4-yl)methyl)-3,5-bis(trifluoromethyl)benzamide]"
380,490,"O=C(NCC1CCN(CC2(NS(=O)(=O)C3CC3)CC2)CC1)c1cc(C(F)(F)F)cc(C(F)(F)F)c1 [Compound 359, N-((1-((1-(cyclopropanesulfonamido)cyclopropyl)methyl)piperidin-4-yl)methyl)-3,5-bis(trifluoromethyl)benzamide]"
< 300,250,"O=C(NCC1CCN(CC2(NS(=O)(=O)CCC(F)(F)F)CC2)CC1)c1cc(C(F)(F)F)cc(C(F)(F)F)c1 [Compound 360, 3,5-bis(trifluoromethyl)-N-((1-((1-(3,3,3-trifluoropropylsulfonylamido)cyclopropyl)methyl)piperidin-4-yl)methyl)benzamide]"
700,600,"CC(C)(C)C(=O)NC1(CN2CCC(CNC(=O)c3cc(C(F)(F)F)cc(C(F)(F)F)c3)CC2)CC1 [Compound 361, N-((1-((1-pivalamidocyclopropyl)methyl)piperidin-4-yl)methyl)-3,5-bis(trifluoromethyl)benzamide]"
< 300,110,"CC(C)(C)NC(=O)CN1CCC(CNC(=O)c2cc(Cl)cc(C(F)(F)F)c2)CC1 [Compound 380, N-((1-(2-(tert-butylamino)-2-oxoethyl)piperidin-4-yl)methyl)-3-chloro-5-(trifluoromethyl)benzamide]"
< 300,90,"CC(C)(C)NC(=O)CN1CCC(CNC(=O)c2cc(Br)cc(C(F)(F)F)c2)CC1 [Compound 382, 3-bromo-N-((1-(2-(tert-butylamino)-2-oxoethyl)piperidin-4-yl)methyl)-5-(trifluoromethyl)benzamide]"
1220,1350,"CC(C)(C)NC(=O)CN1CCC(CNC(=O)Cc2cc(C(F)(F)F)cc(C(F)(F)F)c2)CC1 [Compound 383, 2-(3,5-bis(trifluoromethyl)phenyl)-N-((1-(2-(tert-butylamino)-2-oxoethyl)piperidin-4-yl)methyl)acetamide]"
< 300,160,"O=C(NCC1CCN(CCNS(=O)(=O)C(F)(F)F)CC1)c1cc(Br)cc(Br)c1 [Compound 388, 3,5-dibromo-N-((1-(2-(trifluoromethylsulfonamido)ethyl)piperidin-4-yl)methyl)benzamide]"
< 300,60,"O=C(NCC1CCN(CCNC(=O)C2(C(F)(F)F)CCC2)CC1)c1cc(C(F)(F)F)cc(C(F)(F)F)c1 [Compound 434, 3,5-bis(trifluoromethyl)-N-((1-(2-(1-(trifluoromethyl)cyclobutanecarboxamido)ethyl)piperidin-4-yl)methyl)benzamide]"
